≈ marks a conversion by molar mass, not a printed value.
conditions: buffer; pH 7.4; 200.0 µM

SMILES	solubility kinetic
Cc1ccc(S(=O)(=O)Nc2cccc3ncccc23)cc1	31.1 µg/mL (≈ 104 µM)
COC(=O)c1ccc(C(=O)OC)c(NC(=O)CSCC(=O)O)c1	> 51.2 µg/mL
CCOC(=O)c1ccc2c(c1)N(C)C(=O)c1ccccc1S2	7.7 µg/mL (≈ 24.6 µM)
Cc1ccc2oc(C(=O)NCC3CCOCC3)c(C)c2c1	42.8 µg/mL (≈ 149 µM)
O=C(CN1CCCCCC1)Nc1ccc([N+](=O)[O-])cc1Cl	1.1 µg/mL (≈ 3.53 µM)
Cc1nc2c(C#N)cnn2c2c1CCN2CC1CCCO1 (stereo not given)	> 42.5 µg/mL
Cn1c(N)c(-c2ccccc2)c2ccc([N+](=O)[O-])cc2c1=O	1.1 µg/mL (≈ 3.73 µM)
O=C(CN1C(=O)C(=O)c2ccccc21)c1ccc(Cl)cc1	1.9 µg/mL (≈ 6.34 µM)
CC1CC(=O)Nc2ccccc2N1S(=O)(=O)c1ccc(C#N)cc1 (stereo not given)	2.7 µg/mL (≈ 7.91 µM)
Cc1noc(C)c1C(=O)N(CC(C)C)c1nc2ccccc2s1	1.2 µg/mL (≈ 3.64 µM)
CC(OC(=O)C1CC1)C(=O)Nc1cc(C(F)(F)F)ccc1Cl (stereo not given)	32 µg/mL (≈ 95.3 µM)
CSc1ccc(C2NC(=O)CCC2[N+](=O)[O-])cc1 (stereo not given)	> 39.9 µg/mL
Cl.O=C(c1cc(-c2cccc3ccccc23)nc2ccccc12)N1CCN(CCO)CC1	> 67.2 µg/mL
CN1C(=O)C2(OCCCO2)c2ccccc21	31.6 µg/mL (≈ 144 µM)
CCOC(=O)c1cc(S(=O)(=O)NCc2ccco2)cn1C	> 46.9 µg/mL
Cc1noc(C(=O)Nc2ccc(F)cc2F)c1Cl	13.2 µg/mL (≈ 48.4 µM)
Cc1ccccc1CN(c1ccc(C(=O)N2CCN(C)CC2)cc1)S(C)(=O)=O	> 60.2 µg/mL
Cc1cc(=O)[nH]c2c(C)cc(S(=O)(=O)N3CCOCC3)cc12	17.3 µg/mL (≈ 53.7 µM)
CCCCNC(=O)/C(=C/c1ccco1)NC(=O)c1ccco1	37.7 µg/mL (≈ 125 µM)
CCNc1nc(-c2ccc(OC(F)F)cc2)c(C)s1	20.9 µg/mL (≈ 73.5 µM)
CC(C)(C)C(=O)Nc1cc2c3c(c1)CCN3C(=O)CC2	> 40.9 µg/mL
O=C(NC1CCCCCC1)C(=O)NC1CC1	19.8 µg/mL (≈ 88.3 µM)

SMILES	solubility kinetic
c1ccc(-n2cc(CN3CCCC3)c(-c3ccc4c(c3)OCO4)n2)cc1	> 52.1 µg/mL
COc1ccc(N2CCN(C(=O)c3cccc(S(=O)(=O)N4CCc5ccccc54)c3)CC2)cc1	7.1 µg/mL (≈ 14.9 µM)
O=C1c2ccccc2CN1C(CO)c1ccccc1 (stereo not given)	34.7 µg/mL (≈ 137 µM)
Nc1ccn([C@H]2C[C@H](O)[C@@H](CO)O2)c(=O)n1.O	> 36.8 µg/mL
CC1=C(C)CC(C(=O)NCc2cccc(Cl)c2)C(C(=O)O)C1 (stereo not given)	> 48.3 µg/mL
CC(C)n1c(O)c(C=NCc2ccccc2)c(=O)[nH]c1=S	19.6 µg/mL (≈ 64.6 µM)
CN(C(=O)CSc1ncnc2ccccc12)C1CCCCC1	45.4 µg/mL (≈ 144 µM)
O=C(COC(=O)c1cccs1)NCCc1ccc(F)cc1	42.2 µg/mL (≈ 137 µM)
Cc1ccc(SCC(=O)OCC(=O)NCCc2ccc(S(N)(=O)=O)cc2)c(C)c1	51.3 µg/mL (≈ 118 µM)
O=S(=O)(c1cnc(Cl)c(Cl)c1)N1CCN(c2ncccn2)CC1	0.4 µg/mL (≈ 1.07 µM)
CC(C)(CNC(=O)c1cccc(F)c1)CNC(=O)c1cccc(F)c1	13.2 µg/mL (≈ 38.1 µM)
O=C(Nc1ncccn1)c1ccc([N+](=O)[O-])cc1Cl	27.8 µg/mL (≈ 99.8 µM)
NC(=O)c1oc2ccccc2c1NC(=O)Cc1ccccc1	43.7 µg/mL (≈ 148 µM)
O=c1cc(NC2CCCCC2)[nH]c(=O)[nH]1	13.1 µg/mL (≈ 62.6 µM)
CCCCc1ccc(NC(=O)C(C)CC)cc1 (stereo not given)	6.7 µg/mL (≈ 28.7 µM)
CCCCNc1cc(C(=O)O)cc(S(N)(=O)=O)c1Oc1ccccc1	> 54.7 µg/mL
CN(C)c1ccc(Nc2ccc([N+](=O)[O-])cn2)cc1	1 µg/mL (≈ 3.87 µM)
CCOc1ccc(N2C(=O)CC(Cc3ccccc3OC)C2=O)cc1 (stereo not given)	4.9 µg/mL (≈ 14.4 µM)
CN(C)CCCNC(=O)c1ccccc1Oc1ccccc1	> 44.8 µg/mL
COCCn1c(Cc2ccccc2)nnc1SCC(=O)Nc1ccccc1	> 57.4 µg/mL
Cc1cc(C(=O)CN2C(=O)NC3(CCC(C)CC3)C2=O)c(C)n1C (stereo not given)	13.3 µg/mL (≈ 40.1 µM)
Cc1cccc(C(=O)NCCCn2ccnc2)c1C	37.6 µg/mL (≈ 146 µM)

SMILES	solubility kinetic
Cc1ccc(S(=O)(=O)N(C)C)cc1NC(=O)C(C)OC(=O)C1CCC1 (stereo not given)	> 55.3 µg/mL
CC(OC(=O)c1cccs1)C(=O)NC1CC1 (stereo not given)	> 35.9 µg/mL
CSc1ccc(C(=O)NCC(c2ccco2)N(C)C)cc1[N+](=O)[O-] (stereo not given)	> 52.4 µg/mL
CC(C)(C)NC(=O)c1cccc2c1-c1ccccc1C2=O	29.8 µg/mL (≈ 107 µM)
O=C(NC1=NCCS1)c1ccccc1Br	> 42.8 µg/mL
Cc1cc(O)cc(=O)n1C	> 20.9 µg/mL
Nc1ccc(-c2cc3ccccc3oc2=O)cc1	17.9 µg/mL (≈ 75.4 µM)
COc1ccc(S(=O)(=O)Nc2c(C)nn(C)c2C)cc1Br	> 56.1 µg/mL
Cc1ccc(S(=O)(=O)NCC(=O)OCc2ccccc2)cc1	40.3 µg/mL (≈ 126 µM)
O=C(NCC1CCN(S(=O)(=O)c2ccccc2)CC1)Nc1ccccc1	3.6 µg/mL (≈ 9.64 µM)
COc1ccc(NC(=O)CN2CCN(C(C)=O)CC2)cc1S(=O)(=O)N1CCOCC1	> 66.1 µg/mL
Cc1csc(SCC(=O)NCc2cccc(Cl)c2)n1	> 46.9 µg/mL
COc1ccc(/C=C2\SC(N)=NC2=O)cc1Cl	3.1 µg/mL (≈ 11.5 µM)
CCCc1cnc(N2CCN(S(=O)(=O)c3cccs3)CC2)nc1	< 0.2 µg/mL
CCCCn1c(O)c(C(=O)/C=C/c2ccc3c(c2)OCO3)c(=O)[nH]c1=O	> 53.8 µg/mL
S=C(NCC1CCCO1)NC12CC3CC(CC(C3)C1)C2 (stereo not given)	4 µg/mL (≈ 13.6 µM)
CCCCn1c(N)c(C(=O)NCc2cccs2)c2nc3ccccc3nc21	1.6 µg/mL (≈ 4.22 µM)
NC(=O)NC(=O)COC(=O)CC12CC3CC(CC(C3)C1)C2	29.2 µg/mL (≈ 99.2 µM)
CC1CCN(C(=O)CSc2n[nH]c(-c3cccs3)n2)CC1	> 48.4 µg/mL
CCOc1ccc(S(=O)(=O)N2CCN(C(=O)COc3ccc(Br)cc3)CC2)cc1	2.3 µg/mL (≈ 4.76 µM)
COc1ccccc1C1CCN(C(=O)c2ccc(C(C)(C)C)cc2)CC1	3.1 µg/mL (≈ 8.82 µM)
COc1ccc(NC(=O)COC(=O)C2=COCCO2)cc1OC	> 48.5 µg/mL

SMILES	solubility kinetic
O=C(COc1cccc(Cl)c1)NCc1ccccc1	> 41.4 µg/mL
COc1ccc(CNC(=O)c2cccc(NC(=O)CC3SC(N4CCCCC4)=NC3=O)c2)cc1 (stereo not given)	7.6 µg/mL (≈ 15.8 µM)
COc1cc(OC)c(C(=O)NC2CCCc3ccccc32)cc1OC (stereo not given)	44.3 µg/mL (≈ 130 µM)
CC1CCc2c(C(=O)NCc3ccco3)csc2C1 (stereo not given)	34.9 µg/mL (≈ 127 µM)
CC(=O)Nc1c2c(nn1-c1ccc(F)cc1)CSC2	> 41.6 µg/mL
O/N=C1\CCCc2ccc3ccccc3c21	4.5 µg/mL (≈ 21.3 µM)
Cc1ccc(C(=O)N2CCN(c3ccccn3)CC2)cc1C	> 44.3 µg/mL
Cc1ccccc1NC(=S)N1CCC(NC(=O)c2ccco2)CC1	47.1 µg/mL (≈ 137 µM)
COc1ccc(CNc2ncnc3c2[nH]c2cc(OC)c(OC)cc23)cc1	1.2 µg/mL (≈ 3.29 µM)
Cl.NCCc1c[nH]c2ccc(O)cc12	> 31.9 µg/mL
O=C1N(c2ccccc2)c2ccccc2C1(O)C(F)(F)F (stereo not given)	> 44 µg/mL
COc1ccc2oc(=O)c(C(=O)NC(C)c3ccccc3)cc2c1 (stereo not given)	< 0.7 µg/mL
COc1ccc(O)c(CNc2ccccc2F)c1	34 µg/mL (≈ 138 µM)
CC(NC(=O)c1ccc(C#N)cc1)C1CC2CCC1C2 (stereo not given)	> 40.3 µg/mL
CC1=C(Nc2ccc(C(=O)O)cc2)C(=O)c2ccccc2C1=O	> 46.1 µg/mL
O=C(COC(=O)CNC(=O)c1ccccc1F)NCC(F)(F)F	> 50.4 µg/mL
COC(=O)c1ccc(CN2CCN(CC(C)C)C(CCO)C2)cc1 (stereo not given)	> 50.2 µg/mL
CCCC1(C(=O)OCC)NC(c2ccco2)C2C(=O)N(C)C(=O)C21 (stereo not given)	46.2 µg/mL (≈ 138 µM)
Cc1ccc(Cl)cc1NC(=O)COC(=O)CCN1C(=O)C2CC=CCC2C1=O (stereo not given)	> 60.7 µg/mL

Reference: PubChem BioAssay AID1996
